The numbers were not newly measured in patent publication US20180221315A1, “COMBINATION THERAPY USING ACAMPROSATE AND D-CYCLOSERINE” (Confluence Pharmaceuticals, LLC, priority 2015, published 2018), which cites them from elsewhere.

In data set [1] the test system is cognitive impairment produced by hippocampal lesions, anticholinergic agents, and early social deprivation. Conditions: single dose.
Data set [2] has as its target NR1 NMDA receptor subunit (strychnine-insensitive glycine binding site) (Homo sapiens, UniProt Q05586). Conditions: partial agonist at glycine site of NMDA receptor; relative to glycine alone.
The subject of data set [3] is extinction of conditioned fear, maze tasks, visual recognition memory.

Turning to `N[C@@H]1CONC1=O` [DCS, D-4-amino-3-isoxazolidone], in data set [1], the “effect on cognitive impairment in animal models” value is recorded as “reversed cognitive impairment”. Besides, the “receptor activation, level of maximum stimulation during exposure to glycine alone” value in data set [2] was 40-50%. Moreover, the “effect on learning and memory in healthy animals” value in data set [3] was “enhanced extinction of conditioned fear, performance on maze tasks, and visual recognition memory”.
